Tests used:
CF-31 fibroblasts = assay: Cell spreading on RGD-peptide coupled HA-DTPH/PEGDA hydrogel surface, CF-31; type: cell-based, human; conditions: for percentage of spreading cells / percentage of round cells: complete medium, 18 h post seeding
Method: (§1) Cell culture. Dermal fibroblasts from a person (CF-31) (Clonetics, San Diego) and NIH 3T3 fibroblast (ATCC) were routinely cultured in completed DMEM/F-12 medium supplied with 10% new-born calf serum (for NIH 3T3 fibroblast) or fetal bovine serum (for CF-31 fibroblast), 2 mM L-glutamine and 100 units/ml antibotic-antimycotic (GIBCO BRL, Life Technologies, Grand Island, N.Y.), and 50 μg/ml ascorbic acid (Sigma) at 37° C. in a humidified 5% CO2 incubator. Monolayers of fibroblasts in their growth phase (ca. 90% confluence) were dissociated with trypsin/1 mM EDTA in DPBS, centrifuged and resuspended in the serum free medium or complete medium.
Cell spreading on the RGD-peptides coupled HA-DTPH/PEGDA hydrogel surface. HA-DTPH/PEGDA hydrogels or hydrogel films in 24-well plate were rinsed with serum free medium or complete medium 3 times, and then CF-31 and NIH 3T3 fibroblasts were seeded on the surface of the hydrogel or hydrogel film surface at a density of 4×10^4/well. Then, 1 ml of serum free medium or complete medium was added into each well, and the cells were cultured at 37° C. in a humidified 5% CO2 incubator. At 2, 4, 8 and 18 h post seeding, 0.4 ml of 10% formalin solution (Sigma) was added into each well to fix cell for 15 min. The cells were then stained at room temperature with 0.1% crystal violet in 200 mM boric acid (pH 8.0) for 15 minutes. Photomicrographs of the cytoplasmic-stained cells were taken a 100×total magnification using an inverted Nikon microscope with a CCD camera on a minimum of five random fields per well (n=3 per composition). The bundled Spot 3.0 software (Diagnostic Instruments, Sterling Heights, MI) was used to classify the cell morphology into 3 categories viz. round, partially spread or fully spread as reported by Neff etc[47]. It was defined that cells with surface area <2000 pixels^2 were completely round, 2000 pixels^2 <cells with area <8000 pixels^2 had few cytoplasmic extensions although they maintained a somewhat round appearance, and cells with surface areas >8000 pixels^2 were fully spreading and had multiple cytoplasmic extensions in various directions.

NIH 3T3 fibroblasts [1] = assay: Cell proliferation on the RGD-peptide coupled HA-DTPH/PEGDA hydrogel surface (MTS assay); type: cell-based; conditions: PEGDA 3400; for proliferation of NIH 3T3 fibroblasts on surface: in 24 h, peptide concentration in bulk 0.268 mM
Method: Cell proliferation on the RGD-peptide coupled HA-DTPH/PEGDA hydrogel surface. Peptide-coupled HA-DTPH/PEGDA hydrogels or hydrogel films in 24-well plates were rinsed 3 times with complete medium, and then CF-31 and NIH 3T3 fibroblasts were seeded on the surface of the hydrogel or hydrogel film surface at a density of 1×10^4/well. After that 1 ml of complete medium was added into each well, and the cells were cultured at 37° C. in a humidified 5% CO2 incubator and the medium was changed daily. At different time points (day 1, 2, 3 and 4), the cell number was determined by MTS assay (Cell-Titer 96 Proliferation Kit, Promega, Madison, Wis.) as previously described Shu, et al., Biomacromolecules 3:1304, 2002; Ren and Tang, Anticancer Res. 19:403, 1999) and the absorption recorded at 550 nm with an OPTI Max microplate reader (Molecular Devices). Cell numbers were obtained using standard curves generated from the assay.

NIH 3T3 fibroblasts [2] = assay: Cell proliferation inside the RGD-peptide coupled HA-DTPH/PEGDA hydrogel (MTT assay, F-DA/PI staining); type: cell-based; conditions: NIH 3T3 encapsulated at 1×10^6/ml; day 15 compared to day 1
Method: Cell proliferation inside the RGD-peptide coupled HA-DTPH/PEGDA hydrogel. NIH 3T3 fibroblasts were suspended in 1.25% (w/v) HA-DTPH solution in complete medium (pH 7.4) at a density of 1×10^6/ml, and then 1 ml of stock peptide-coupled PEGDA or blank PEGDA solution (see hydrogel preparation) was added into 4 ml of cell/HA-DTPH mixture solution. After mixed, 200 μl of the mixture of HA-DTPH/PEG-diacrylate/T31 fibroblasts was injected into each well of 24-well plates. After 1 h, 1.0 ml of complete medium was added into each well and incubated in 37° C. 5% CO2 incubator. The medium was changed every day without damaging the hydrogel. The viability of NIH 3T3 fibroblast inside hydrogel following 1, 5 and 15 d in vitro culture was determined by a double-staining procedure (Saha, et al., Dev. Comp. Immunol. 27:351, 2003) using fluorescein diacetate (F-DA) and propidium iodide (PI). Briefly, cell-hydrogel constructs were rinsed twice with DPBS buffer, stained with F-DA (0.02 mg/ml)(Molecular Probes, Eugene, Oreg.) and PI (0.2 μg/ml)(Sigma) at room temperature for 3 min, rinsed twice with DPBS buffer, stored on ice, and observed under confocal microscope (Zeiss Axioplan 2 Imaging System, LSM 5 Pa).
The cell proliferation inside hydrogel following in vitro culture of day 1, 5, 10 and 15 was determined by MTT (3-[4,5-dimethylthiazol-2-yl]-2,5-diphenyltetrazolium bromide) assay (Sigma). A 1% MTT in serum-free media solution was added to each well containing the cell-hydrogel construct. Active mitochondria metabolize the tetrazolium salt to form an insoluble formazin dye. After 8 h of incubation, the constructs were placed in 10 ml glass vials and 2 ml 0.04 N HCl in isopropanol was added to extract the formazin. The absorbance was recorded at 550 nm with an OPTI Max microplate reader (Molecular Devices) and was converted into a cell number based on standard curves.

NIH 3T3 fibroblasts [3] = assay: Cell spreading on RGD-peptide coupled HA-DTPH/PEGDA hydrogel surface, NIH 3T3; type: cell-based
Method: as §1
Cell spreading on the RGD-peptides coupled HA-DTPH/PEGDA hydrogel surface. HA-DTPH/PEGDA hydrogels or hydrogel films in 24-well plate were rinsed with serum free medium or complete medium 3 times, and then CF-31 and NIH 3T3 fibroblasts were seeded on the surface of the hydrogel or hydrogel film surface at a density of 4×10^4/well. Then, 1 ml of serum free medium or complete medium was added into each well, and the cells were cultured at 37° C. in a humidified 5% CO2 incubator. At 2, 4, 8 and 18 h post seeding, 0.4 ml of 10% formalin solution (Sigma) was added into each well to fix cell for 15 min. The cells were then stained at room temperature with 0.1% crystal violet in 200 mM boric acid (pH 8.0) for 15 minutes. […]

NIH 3T3 fibroblasts [4] = assay: Injectable fibrous tissue regeneration in nude mouse, histology and procollagen immunohistochemistry; type: in vivo, nude mice
Method: RGD-peptide coupled HA-DTPH/PEGDA hydrogel for injectable fibrous tissue regeneration in nude mouse. Animal experiments were carried out according to NIH guidelines for the care and use of laboratory animals (NIH publication #85-23 rev. 1985). Male nude mice (n=12) (Simonsen Laboratories Inc., Gilroy, Calif.), 4-6 weeks old were anesthetized with 2.5% isoflurane using a VetEquip inhalation anesthesia system (Pleasanton, Calif.). NIH 3T3 fibroblasts were suspended in 1.25% (w/v) HA-DTPH solution in complete medium (pH 7.4) at a density of 50×10^6 cell/ml, and then 1 ml stock CRGDS-coupled PEGDA (peptide concentration 10/100) or blank PEGDA (see 2.4 hydrogel preparation) was added into 4 ml cell/HA-DTPH mixture solution and mixed. Each nude mouse received four 300 μl s.c. dorsal injections by means of an 18-gauge needle under the dorsal panniculus camosus (two 300 μl solution with cells and two 300 μl solution without cells as control). At each time point (4 and 8 weeks after implantation), two nude mice were sacrificed, and the implants with the surrounding tissues were removed from the mouse, fixed in 10% buffered formalin solution (Sigma) for 24 h, embedded in paraffin, cut into 5-μm sections, and mounted onto slides.
Histological and immunohistochemical staining. […]

[5] = peptide concentration in bulk 0.0054 mM
[6] = peptide concentration in bulk 0.0268 mM
[7] = peptide concentration in bulk 0.134 mM
[8] = peptide concentration in bulk 0.268 mM
[9] = PEG spacer molecular weight 3400, peptide concentration in bulk 0.268 mM

Substance | percentage of spreading cells (CF-31 fibroblasts; [5]) [%] | percentage of spreading cells (CF-31 fibroblasts; [6]) [%] | percentage of spreading cells (CF-31 fibroblasts; [7]) [%] | percentage of spreading cells (CF-31 fibroblasts; [8]) [%] | proliferation of NIH 3T3 fibroblasts on surface (NIH 3T3 fibroblasts [1]) | cell proliferation inside the hydrogel (NIH 3T3 fibroblasts [2]) [%] | cell attachment and spreading (CF-31 fibroblasts; CF-31, serum free medium) | cell morphology on hydrogel surface (NIH 3T3 fibroblasts [3]; 4 and 8 h post-seeding) | round cell percent (CF-31 fibroblasts; PEG spacer molecular weight 700, peptide concentration in bulk 0.268 mM) [%] | round cell percent (CF-31 fibroblasts; [9]) [%] | spreading percent of CF-31 fibroblast (CF-31 fibroblasts; [9]) [%] | percentage of round cells (CF-31 fibroblasts; [5]) [%] | percentage of round cells (CF-31 fibroblasts; [8]) [%] | cell area (NIH 3T3 fibroblasts [3]; at 4 and 8 h) | cell density relative to cell culture polystyrene control (NIH 3T3 fibroblasts [1]; hydrogel film surface, 4 days culture, CRGDS concentration in bulk 0.268 mM) | fibrous tissue and procollagen versus hydrogel lacking the peptide (NIH 3T3 fibroblasts [4]; cell-seeded hydrogel, 4 weeks post-injection) | signs of biological incompatibility (necrosis or damage to the surrounding tissues) (NIH 3T3 fibroblasts [4]; s.c. injection in nude mice, gel formed in vivo)
CCRGDS | 8.3 | 12.4 | 36.8 | 46.5 | 1.50 fold | 253 |  |  |  |  |  |  |  |  |  |  | 
CRDGS [reference compound] |  |  |  |  | no spreading or proliferation was observed | 245 | failed to promote cell spreading | the cells were rounded |  |  |  |  |  |  |  |  | 
CRGDS | 19.1 | 31.3 | 48.2 | 53.0 | 1.64 fold | 253 |  |  | 75.6 | 9.4 | 53 | 51.2 | 18 | larger than that for CCRGDS | ca. 80% | More uniform fibrous tissue and procollagen | No signs of biological incompatibility

Source: patent publication US20050282747A1, “Methods and compositions for wound healing” (The Research Foundation of State University of New York at …, priority 2003, published 2005)
